Test results reported in patent US8497133B1, “Terpene media compositions for eluting compounds from matrices and methods for making and using them” (Medtronic MiniMed, Inc., priority 2009, dated 2013).
Where two headings read alike, the source gives them in different places.

Legend:
[1] = cited from earlier work
[2] = Elution of steroid from drug eluting leads/electrodes in conventional media (PBS without additives); format: physicochemical; conditions: conventional media systems, e.g. media with just a surfactant; result in words
Text: The percent elution was less than 7% in 10 days from the controlled-release device (CRD) leads when PBS ([…]) without any additives was used.

[3] = format: physicochemical
Method: To evaluate buffers with different pH, Dexamethasone sodium phosphate can be dissolved in an elution media (e.g. one of the different embodiments of the invention disclosed herein). […] This concentration was about 10 times the concentration that might be observed if the drug from the typical device was completely eluted in about 75 mL of media.

SMILES | solubility in water ([1]; result in words, listed as dexamethasone sodium phosphate) | solubility in water ([1]; result in words) | elution in conventional media/solvents [2] | stability with respect to pH (order) [3] | solubility in water [1]
C[C@@H]1C[C@H]2[C@@H]3CCC4=CC(=O)C=C[C@]4(C)[C@@]3(F)[C@@H](O)C[C@]2(C)[C@@]1(O)C(=O)COP(=O)(O)O [Dexamethasone sodium phosphate] | water soluble | freely soluble | minimal | pH 4>pH 7.5>pH 9 | 
OCc1ccccc1 [Benzyl alcohol, Phenylmethanol] |  |  |  |  | 4 g/100 mL
